In the NIST ThermoML archive (doi:10.1016/j.jct.2006.03.016):

Assay: molar heat capacity at constant pressure
Settings: 101.33 kPa, Crystal, Small (less than 1 g) adiabatic calorimetry

O=C(O)c1ccccc1 [benzoic acid]
Settings | molar heat capacity at constant pressure [J/K/mol]
15.95 K | 7.243
17.21 K | 7.834
19 K | 9.964
20.93 K | 12.14
22.91 K | 14.48
25.23 K | 16.99
27.83 K | 19.32
30.45 K | 22.55
33.46 K | 25.66
36.82 K | 28.56
40.35 K | 31.83
42.49 K | 34.49
44.38 K | 35.05
46.36 K | 38.04
50.06 K | 39.2
52.26 K | 40.57
54.24 K | 41.94
54.48 K | 43.06
56.71 K | 43.66
59.17 K | 46.1
59.64 K | 45.51
63.04 K | 47.67
67.38 K | 50.03
72.18 K | 52.48
77.01 K | 54.7
81.66 K | 56.45
86.47 K | 58.38
91.42 K | 60.83
96.33 K | 62.66
101.31 K | 64.69
106.39 K | 66.75
111.42 K | 68.59
116.46 K | 70.27
121.51 K | 72.23
126.57 K | 74.39
131.52 K | 76.4
136.54 K | 78.39
141.64 K | 80.14
146.72 K | 81.95
151.83 K | 83.84
156.96 K | 85.94
162.08 K | 87.95
167.21 K | 90.16
172.34 K | 92.08
177.47 K | 93.88
182.61 K | 95.82
187.75 K | 97.76
192.89 K | 100.22
198.03 K | 102.35
203.11 K | 104.33
208.2 K | 106.33
213.34 K | 108.35
218.49 K | 110.69
223.64 K | 113.13
228.8 K | 115.06
233.96 K | 117.66
239.1 K | 120.1
244.26 K | 122.38
249.39 K | 124.56
254.51 K | 127.05
259.67 K | 129.62
264.84 K | 131.98
269.99 K | 134.13
275.13 K | 137.14
280.31 K | 138.73
285.48 K | 141.06
290.65 K | 143.42
296.6 K | 146.34
302.17 K | 148.97
306.93 K | 151.12
312.15 K | 153.27
317.33 K | 155.37
322.49 K | 157.74
326.5 K | 160.6
330.48 K | 161.44
335.65 K | 163.8
340.82 K | 165.96

[Al+3].[Al+3].[O-2].[O-2].[O-2] [aluminum oxide (Al2O3)]
Settings | molar heat capacity at constant pressure [J/K/mol]
67.51 K | 4.23
72.34 K | 5.283
77.04 K | 6.242
81.8 K | 7.403
86.61 K | 8.725
91.44 K | 10.14
96.31 K | 11.67
101.2 K | 13.33
106.12 K | 15.05
111.05 K | 16.78
116.01 K | 18.55
120.97 K | 20.4
125.95 K | 22.45
126.3 K | 22.61
130.94 K | 24.45
131.11 K | 24.51
136.11 K | 26.55
141.13 K | 28.63
146.18 K | 30.36
151.22 K | 32.53
156.26 K | 34.6
161.32 K | 36.54
166.38 K | 38.67
171.45 K | 40.51
176.54 K | 42.37
181.62 K | 44.42
186.71 K | 46.27
191.8 K | 48.19
192.43 K | 48.27
197.63 K | 50.37
202.75 K | 52.12
207.86 K | 53.85
212.97 K | 55.55
218.09 K | 57.33
223.2 K | 59.08
228.33 K | 60.72
233.45 K | 62.37
238.56 K | 63.95
243.82 K | 65.47
248.97 K | 66.83
253.98 K | 68.28
259.13 K | 69.78
264.27 K | 71.19
269.43 K | 72.53
274.59 K | 73.76
279.73 K | 74.97
284.88 K | 76.16
290.03 K | 77.34
295.19 K | 78.6
300.35 K | 79.79
305.76 K | 80.81
311 K | 82
316.16 K | 83.02
321.33 K | 83.65
326.51 K | 84.83
331.66 K | 86.08

[Cu] [copper]
Settings | molar heat capacity at constant pressure [J/K/mol]
14.2 K | 0.1027
15.68 K | 0.2097
16.38 K | 0.2384
16.77 K | 0.2351
17.8 K | 0.3079
19.33 K | 0.4049
21 K | 0.5507
22.76 K | 0.7024
24.89 K | 0.9364
27.19 K | 1.257
29.54 K | 1.621
32.17 K | 2.071
35.07 K | 2.634
35.81 K | 2.796
38.36 K | 3.344
38.95 K | 3.483
42.31 K | 4.276
46.05 K | 5.166
50.21 K | 6.197
54.08 K | 7.128
54.62 K | 7.296
56.1 K | 7.632
58.53 K | 8.226
59.11 K | 8.36
59.5 K | 8.478
63.71 K | 9.435
63.87 K | 9.508
68.55 K | 10.6
73.28 K | 11.6
78.07 K | 12.55
82.91 K | 13.41
87.8 K | 14.23
92.71 K | 15
93.13 K | 15.06
97.66 K | 15.72
97.7 K | 15.7
102.69 K | 16.38
107.7 K | 16.96
112.73 K | 17.49
117.78 K | 18.01
122.84 K | 18.49
127.92 K | 18.95
133 K | 19.37
138.1 K | 19.74
143.21 K | 20.06
148.33 K | 20.36
151.4 K | 20.55
153.45 K | 20.66
156.5 K | 20.85
158.58 K | 20.95
161.61 K | 21.11
166.74 K | 21.37
171.89 K | 21.59
177.04 K | 21.77
182.2 K | 21.94
187.36 K | 22.15
192.53 K | 22.25
197.69 K | 22.35
202.86 K | 22.6
203.62 K | 22.66
208.02 K | 22.73
208.7 K | 22.81
213.88 K | 22.96
219.05 K | 23.11
224.22 K | 23.25
229.39 K | 23.33
234.57 K | 23.45
239.76 K | 23.52
244.94 K | 23.6
247.71 K | 23.62
250.12 K | 23.7
253.15 K | 23.76
255.31 K | 23.79
261.84 K | 23.83
270.43 K | 24.07
275.79 K | 24.13
280.97 K | 24.2
286.16 K | 24.27
291.35 K | 24.32
296.54 K | 24.39
301.73 K | 24.51
306.93 K | 24.55
312.11 K | 24.54
317.29 K | 24.59
322.48 K | 24.64
327.67 K | 24.69
332.85 K | 24.81
338.04 K | 24.86
343.25 K | 24.88
348.43 K | 25.04
